Tests used:
[1] = target: purified human Factor XIa (Homo sapiens (Human), UniProt P03951); assay: Factor XIa Assay; type: biochemical; conditions: substrate Z-Gly-Pro-Arg-AFC 100 μM, 40 pM enzyme, pH 7.4; read-out: FXIa IC50
Protocol: The effectiveness of a compound of the present invention as an inhibitor of Coagulation Factor XIa can be determined using a relevant purified serine protease, and an appropriate synthetic substrate. The rate of hydrolysis of the chromogenic or fluorogenic substrate by the relevant serine protease was measured both in the absence and presence of compounds of the present invention. Assays were conducted at room temperature or at 37° C. […] A decrease in the rate of fluorescence change in the presence of inhibitor is indicative of enzyme inhibition. Such methods are known to one skilled in the art. […]
Factor XIa determinations were made in 50 mM HEPES buffer at pH 7.4 containing 150 mM NaCl, 5 mM CaCl2, and 0.1% PEG 8000 (polyethylene glycol; JT Baker or Fisher Scientific). Determinations were made using purified human Factor XIa at a final concentration of 40 pM (Sekisui Diagnostics) and the synthetic substrate, Z-Gly-Pro-Arg-AFC, TFA salt (Sigma #C0980) at a concentration of 100 μM.
Times required to achieve equilibration between enzyme and inhibitor were determined in control experiments. Initial velocities of product formation in the absence (Vo) or presence of inhibitor (Vi) were measured. Assuming competitive inhibition, and that unity is negligible compared Km/[S], [I]/e, and [I]/e (where [S], [I], and e respectively represent the total concentrations, of substrate, inhibitor and enzyme), the equilibrium constant (Ki) for dissociation of the inhibitor from the enzyme can be obtained from the dependence of Vo/Vi on [I] shown in the following equation.

[2] = target: purified Human plasma kallikrein (Homo sapiens (Human), UniProt P03952); assay: Kallikrein Assay; type: biochemical; conditions: Plasma kallikrein; substrate Acetyl-K-P-R-AFC, 0.5 nM enzyme, pH 7.4; read-out: PK IC50
Protocol: The effectiveness of a compound of the present invention as an inhibitor of Kallikrein can be determined using a relevant purified serine protease, and an appropriate synthetic substrate. The rate of hydrolysis of the chromogenic or fluorogenic substrate by the relevant serine protease was measured both in the absence and presence of compounds of the present invention. Assays were conducted at room temperature or at 37° C. […] A decrease in the rate of fluorescence change in the presence of inhibitor is indicative of enzyme inhibition. Such methods are known to one skilled in the art. The results of this assay are expressed as the inhibitory constant, Ki.
Kallikrein determinations were made in 50 mM HEPES buffer at pH 7.4 containing 150 mM NaCl, 5 mM CaCl2, and 0.1% PEG 8000 (polyethylene glycol; Fisher Scientific). Determinations were made using purified Human plasma kallikrein at a final concentration of 0.5 nM (Enzyme Research Laboratories) and the synthetic substrate, Acetyl-K-P-R-AFC (Sigma # C6608) at a concentration of […].
Times required to achieve equilibration between enzyme and inhibitor were determined in control experiments. The reactions were performed under linear progress curve conditions and fluorescence increase measured at 405 Ex/510 Em nm. […] IC50 was determined by inflection point from a four parameter logistic curve fit. Ki was calculated using the Cheng Prusoff equation, Ki=IC50/(1+([S]/Km)).

Chain of purified Human plasma kallikrein (P03952 391-638): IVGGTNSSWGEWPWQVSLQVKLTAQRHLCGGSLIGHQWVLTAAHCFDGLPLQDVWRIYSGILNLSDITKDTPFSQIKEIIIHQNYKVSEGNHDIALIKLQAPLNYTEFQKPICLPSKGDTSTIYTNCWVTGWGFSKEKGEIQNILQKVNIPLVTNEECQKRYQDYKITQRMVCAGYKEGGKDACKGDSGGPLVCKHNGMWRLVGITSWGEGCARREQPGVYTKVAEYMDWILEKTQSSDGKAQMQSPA
Chain of purified Human plasma kallikrein (P03952 20-390 partner): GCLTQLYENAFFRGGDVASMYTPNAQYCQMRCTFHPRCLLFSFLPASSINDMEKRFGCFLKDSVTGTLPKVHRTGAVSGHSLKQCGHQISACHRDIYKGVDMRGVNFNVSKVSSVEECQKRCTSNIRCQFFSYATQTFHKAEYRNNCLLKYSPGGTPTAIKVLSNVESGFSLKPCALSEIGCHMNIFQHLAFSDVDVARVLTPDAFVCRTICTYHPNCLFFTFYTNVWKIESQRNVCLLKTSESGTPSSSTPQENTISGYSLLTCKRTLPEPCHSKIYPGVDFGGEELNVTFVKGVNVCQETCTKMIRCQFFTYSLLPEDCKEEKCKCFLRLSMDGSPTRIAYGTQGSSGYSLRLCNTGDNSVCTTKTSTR
Chain of purified human Factor XIa (P03951 388-625): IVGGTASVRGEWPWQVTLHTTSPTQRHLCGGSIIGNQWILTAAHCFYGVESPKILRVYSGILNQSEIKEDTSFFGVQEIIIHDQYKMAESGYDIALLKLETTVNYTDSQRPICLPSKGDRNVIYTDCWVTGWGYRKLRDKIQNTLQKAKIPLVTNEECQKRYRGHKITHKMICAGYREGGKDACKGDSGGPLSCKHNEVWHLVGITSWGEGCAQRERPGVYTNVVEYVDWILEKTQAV
Chain of purified human Factor XIa (P03951 19-387 partner): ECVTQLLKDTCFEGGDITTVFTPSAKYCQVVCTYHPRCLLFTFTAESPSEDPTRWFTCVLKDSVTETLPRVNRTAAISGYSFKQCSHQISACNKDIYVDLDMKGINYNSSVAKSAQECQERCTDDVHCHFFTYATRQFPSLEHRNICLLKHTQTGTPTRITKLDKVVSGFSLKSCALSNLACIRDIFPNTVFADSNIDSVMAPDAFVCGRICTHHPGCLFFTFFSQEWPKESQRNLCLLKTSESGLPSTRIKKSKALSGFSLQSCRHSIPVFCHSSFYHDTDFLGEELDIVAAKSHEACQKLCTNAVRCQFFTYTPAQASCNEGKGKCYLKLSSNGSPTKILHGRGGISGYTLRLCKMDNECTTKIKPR

SMILES | IC50 [1] | IC50 [2]
O=C(O)c1ccc(-c2cccc(C(Cc3ccccc3)c3ccc(-c4cc(Cl)ccc4-n4cnnn4)c[n+]3[O-])c2)cc1 (single isomer, unassigned) [Example 12] | 3500 nM | 
COCCNC(=O)N1CCC(c2cccc([C@H](Cc3ccccc3)c3ccc(-c4cc(Cl)ccc4-n4cnnn4)c[n+]3[O-])c2)CC1 [Example 48, 4-{3-[(1s)-1-{5-[5-chloro-2-(1H-tetrazol-1-yl)phenyl]-1-oxidopyridin-2-yl}-2-phenylethyl]phenyl}-N-(2-methoxyethyl) piperidine-1-carboxamide] | 8.71 nM | 325 nM
O=C(O)c1cccc(-c2cccc(C(CC3CC3)c3ccc(-c4cc(Cl)ccc4-n4cnnn4)c[n+]3[O-])c2)c1 (stereo not drawn) [Example 18] | 12 nM | 250 nM
O=C(O)c1cccc(-c2cccc(C(CC3CC3)c3ccc(-c4cc(Cl)ccc4-n4cnnn4)c[n+]3[O-])c2)c1 (racemic) [Example 17] | 12 nM | 543 nM
COC(=O)Nc1ccc(-c2cccc([C@@H](Cc3ccccc3)c3ccc(-c4cc(Cl)ccc4-n4cnnn4)c[n+]3[O-])c2)cc1 [Example 2, (R)-5-(5-Chloro-2-(1H-tetrazol-1-yl)phenyl)-2-(1-(4′-((methoxycarbonyl)amino)-[1,1′-biphenyl]-3-yl)-2-phenylethyl)pyridine 1-oxide] | 424 nM | 
CC(C)(C)OC(=O)N1CCC(c2cccc([C@@H](Cc3ccccc3)c3ccc(-c4cc(Cl)ccc4-n4cnnn4)c[n+]3[O-])c2)CC1 [Example 25, tert-butyl 4-{3-[(1R)-1-{5-[5-chloro-2-(1H-tetrazol-1-yl)phenyl]-1-oxidopyridin-2-yl}-2-phenylethyl]phenyl} piperidine-1-carboxylate] | 1000 nM | 
O=C(O)c1cccc(-c2cc(F)cc([C@H](Cc3ccccc3)c3ccc(-c4cc(Cl)ccc4-n4cnnn4)c[n+]3[O-])c2)c1 [Example 14] | 0.301 nM | 19.1 nM
O=C(C1CC1)N1CCC(c2cccc([C@H](Cc3ccccc3)c3ccc(-c4cc(Cl)ccc4-n4cnnn4)c[n+]3[O-])c2)CC1 [Example 34, 5-[5-chloro-2-(1H-tetrazol-1-yl)phenyl]-2-[(1S)-1-{3-[1-(cyclopropyl-carbonyl)piperidin-4-yl]phenyl}-2-phenylethyl] pyridine 1-oxide] | 10.6 nM | 371 nM
NC(=O)c1cccc(-c2cc(F)cc([C@H](Cc3ccccc3)c3ccc(-c4cc(Cl)ccc4-n4cnnn4)c[n+]3[O-])c2)c1 [Example 16] | 3.34 nM | 178 nM
CC(C)COC(=O)N1CCC(c2cccc([C@H](Cc3ccccc3)c3ccc(-c4cc(Cl)ccc4-n4cnnn4)c[n+]3[O-])c2)CC1 [Example 42, 2-methylpropyl 4-{3-[(1S)-1-{5-[5-chloro-2-(1H-tetrazol-1-yl)phenyl]-1-oxidopyridin-2-yl}-2-phenylethyl]phenyl} piperidine-1-carboxylate] | 557 nM | 
O=C(O)c1cccc(-c2cccc(C(Cc3ccccc3)c3ccc(-c4cc(Cl)ccc4-n4cnnn4)c[n+]3[O-])c2)c1 (racemic) [Example 7, 2-(1-(3′-carboxy-[1,1′-biphenyl]-3-yl)-2-phenylethyl)-5-(5-chloro-2-(1H-tetrazol-1-yl)phenyl)pyridine 1-oxide] | 0.459 nM | 77.7 nM
CS(=O)(=O)c1ccc(-c2cccc([C@H](Cc3ccccc3)c3ccc(-c4cc(Cl)ccc4-n4cnnn4)c[n+]3[O-])c2)cc1 [Example 6] | 31.1 nM | 1110 nM
COC(=O)N1CCC(c2cccc(C(Cc3ccccc3)c3ccc(-c4cc(Cl)ccc4-n4cnnn4)c[n+]3[O-])c2)CC1 (racemic) [Example 23, methyl 4-[3-(1-{5-[5-chloro-2-(1H-tetrazol-1-yl)phenyl]-1-oxidopyridin-2-yl}-2-phenylethyl)phenyl] piperidine-1-carboxylate] | 85.9 nM | 
O=C(C1CC1(F)F)N1CCC(c2cccc([C@H](Cc3ccccc3)c3ccc(-c4cc(Cl)ccc4-n4cnnn4)c[n+]3[O-])c2)CC1 (stereo partly drawn) [Example 30, 5-[5-chloro-2-(1H-tetrazol-1-yl)phenyl]-2-[(1S)-1-(3-{1-[(2,2-difluoro-cyclopropyl)carbonyl]piperidin-4-yl}phenyl)-2-phenylethyl] pyridine 1-oxide] | 28.6 nM | 820 nM
CCCOC(=O)N1CCC(c2cccc([C@H](Cc3ccccc3)c3ccc(-c4cc(Cl)ccc4-n4cnnn4)c[n+]3[O-])c2)CC1 [Example 41, propyl 4-{3-[(1S)-1-{5-[5-chloro-2-(1H-tetrazol-1-yl)phenyl]-1-oxidopyridin-2-yl}-2-phenylethyl]phenyl} piperidine-1-carboxylate] | 131 nM | 
NC(=O)C(=O)N1CCC(c2cccc([C@H](Cc3ccccc3)c3ccc(-c4cc(Cl)ccc4-n4cnnn4)c[n+]3[O-])c2)CC1 [Example 39, 2-(4-{3-[(1S)-1-{5-[5-chloro-2-(1H-tetrazol-1-yl)phenyl]-1-oxidopyridin-2-yl}-2-phenylethyl]phenyl}piperidin-1-yl)-2-oxoacetamide] | 9.95 nM | 113 nM
CC(C)(C)OC(=O)N1CCC(c2cccc([C@H](Cc3ccccc3)c3ccc(-c4cc(Cl)ccc4-n4cnnn4)c[n+]3[O-])c2)CC1 [Example 26, tert-butyl 4-{3-[(1S)-1-{5-[5-chloro-2-(1H-tetrazol-1-yl)phenyl]-1-oxidopyridin-2-yl}-2-phenylethyl]phenyl} piperidine-1-carboxylate] | 247 nM | 
CS(=O)(=O)c1ccc(-c2cccc([C@@H](Cc3ccccc3)c3ccc(-c4cc(Cl)ccc4-n4cnnn4)c[n+]3[O-])c2)cc1 [Example 5] | 10000 nM | 
O=C(OCC(F)(F)F)N1CCC(c2cccc([C@H](Cc3ccccc3)c3ccc(-c4cc(Cl)ccc4-n4cnnn4)c[n+]3[O-])c2)CC1 [Example 46, 2,2,2-trifluoroethyl 4-{3-[(1S)-1-{5-[5-chloro-2-(1H-tetrazol-1-yl)phenyl]-1-oxidopyridin-2-yl}-2-phenylethyl]phenyl} piperidine-1-carboxylate] | 478 nM | 
O=C(O)c1cccc(-c2cccc(C(CC3CC3)c3ccc(-c4cc(Cl)ccc4-n4cnnn4)c[n+]3[O-])c2)c1 (stereo not drawn) [Example 19] | 1000 nM | 
O=C(OCCF)N1CCC(c2cccc([C@H](Cc3ccccc3)c3ccc(-c4cc(Cl)ccc4-n4cnnn4)c[n+]3[O-])c2)CC1 [Example 43, 2-fluoroethyl 4-{3-[(1S)-1-{5-[5-chloro-2-(1H-tetrazol-1-yl)phenyl]-1-oxidopyridin-2-yl}-2-phenylethyl]phenyl} piperidine-1-carboxylate] | 63.4 nM | 
O=C(OCC1CC1)N1CCC(c2cccc([C@H](Cc3ccccc3)c3ccc(-c4cc(Cl)ccc4-n4cnnn4)c[n+]3[O-])c2)CC1 [Example 44, cyclopropyl-methyl 4-{3-[1S)-1-{5-[5-chloro-2-(1H-tetrazol-1-yl)phenyl]-1-oxidopyridin-2-yl}-2-phenylethyl] phenyl} piperidine-1-carboxylate] | 184 nM | 
O=C(C(F)F)N1CCC(c2cccc([C@H](Cc3ccccc3)c3ccc(-c4cc(Cl)ccc4-n4cnnn4)c[n+]3[O-])c2)CC1 [Example 37, 5-[5-chloro-2-(1H-tetrazol-1-yl)phenyl]-2-[(1S)-1-{3-[1-(difluoroacetyl)piperidin-4-yl]phenyl}-2-phenylethyl] pyridine 1-oxide] |  | 536 nM
O=C(O)c1cccc(-c2cc(F)cc([C@@H](Cc3ccccc3)c3ccc(-c4cc(Cl)ccc4-n4cnnn4)c[n+]3[O-])c2)c1 [Example 15] | 232 nM | 
CCNC(=O)N1CCC(c2cccc([C@@H](Cc3ccccc3)c3ccc(-c4cc(Cl)ccc4-n4cnnn4)c[n+]3[O-])c2)CC1 [Example 27, 4-{3-[(1R)-1-{5-[5-chloro-2-(1H-tetrazol-1-yl)phenyl]-1-oxidopyridin-2-yl}-2-phenylethyl]phenyl}-N-ethyl-piperidine-1-carboxamide] | 1000 nM | 
[O-][n+]1cc(-c2cc(Cl)ccc2-n2cnnn2)ccc1C(Cc1ccccc1)c1cccc(C2CCNCC2)c1 (racemic) [Example 20, 5-[5-chloro-2-(1H-tetrazol-1-yl)phenyl]-2-[2-phenyl-1-(3-piperidin-4-ylphenyl)ethyl] pyridine 1-oxide] | 216 nM | 
